Results reported in patent publication US20220226257A1, “USE OF CANNABINOIDS IN THE TREATMENT OF COM[…] EPILEPSY” (GW Research Limited, priority 2019, published 2022).

How the values were obtained:
[1] = system: patients suffering from epilepsy syndromes (childhood onset treatment-resistant epilepsy); experiment: Case study analysis of quality of life measures, open label study (expanded access programme); type: in vivo, human
Protocol: The present example provides further data on additional epilepsy syndromes which were studied as part of the expanded access programme described in Example 1.
(§1) Children and young adults with severe, childhood onset treatment-resistant epilepsy (TRE) were tested with a highly purified extract of cannabidiol (CBD) obtained from a cannabis plant. The participants in the study were part of an expanded access compassionate use program for CBD.
(§2) All patients entered a baseline period of 4 weeks when parents/caregivers kept prospective seizure diaries, noting all countable motor seizure types.
(§3) The patients then received a highly purified CBD extract (greater than 98% CBD w/w) in sesame oil, of known and constant composition, at a dose of 5 mg/kg/day in addition to their baseline anti-epileptic drug (AED) regimen.
(§4) Laboratory testing for hematologic, liver, kidney function, and concomitant AED levels was performed at baseline, and at regular intervals throughout the 12 weeks of the study.
Table 7 below details the results obtained at the end of the study period (after between 12 and 108 weeks) from patients suffering from epilepsy syndromes in an open label study.

[2] = system: children and young adults with severe, childhood onset treatment-resistant epilepsy (TRE); experiment: Principal component analysis of QOLCE survey data, open label (expanded access) study of CBD; type: in vivo, human
Protocol: PCA is a useful tool to visualise relatedness between populations of data and was used in the present example to determine the symptom domains that were improved during an open label study of cannabidiol (CBD) in patients with treatment resistant epilepsy.
as §1, §2, §3, §4
The Quality of Life in Childhood Epilepsy (QOLCE) survey was used to measure multiple QOL domains. […] The QOLCE questionnaire assessed 91 items divided into five sub-domains: physical function; cognitive function; emotional well-being; social function and behaviour. General health was also recorded. […]

[3] = system: children and young adults with treatment resistant epilepsy associated with Dravet syndrome and Lennox-Gastaut syndrome; experiment: Principal component analysis of QOLCE survey data pooled from three randomised controlled clinical trials; type: in vivo, human
Description: As described in Example 1 above PCA is a useful tool to scrutinise data which have several variables. A similar analysis was undertaken on the data produced using data pooled from three randomised controlled clinical trials on children and young adults with treatment resistant epilepsy associated with Dravet syndrome (one trial) and Lennox-Gastaut syndrome (LGS) (2 trials).
In the two placebo-controlled studies of CBD as a treatment for seizures associated with LGS, cannabidiol (CBD) was used as add-on treatment in patients who were defined as treatment-resistant. Patients had previously tried and stopped using a median of 6 AEDs and were being maintained on a median of 3 AEDs.
The first study was a 1:1 randomised, double-blind, 14-week comparison of cannabidiol oral solution (CBD-OS) versus placebo. The treatment period consisted of a two-week titration period followed by a 12-week maintenance period. The treatment period was followed by a 10-day taper period and a four-week follow-up period. […]
The Quality of Life in Childhood Epilepsy (QOLCE) survey was used to measure multiple QOL domains. […] The QOLCE questionnaire assessed 91 items divided into five sub-domains: physical function; cognitive function; emotional well-being; social function and behaviour. General health was also recorded.

[4] = system: epileptic male Wistar rats (RISE-SRS); conditions: shown previously; cited from earlier work
[5] = system: patients with Lennox-Gastaut syndrome; experiment: Biostatistical analysis of QOLCE subscale scores versus placebo, randomised controlled trial; type: in vivo, human; design: key to Biostatistical analysis of QOL subscale score versus placebo: ↔: no change (indicated by); ↑: a difference of greater than 10 points between medians (indicated by t); this change was statistically significant (indicated by *); conditions: 20 mg/kg/day
Description: The following example uses biostatistical analysis to look for trends in QOL data collected in a randomised controlled trial of cannabidiol in patients with Lennox-Gastaut syndrome.
This study was a 1:1 randomised, double-blind, 14-week comparison of cannabidiol oral solution (CBD-OS) versus placebo. The treatment period consisted of a two-week titration period followed by a 12-week maintenance period. The treatment period was followed by a 10-day taper period and a four-week follow-up period. The study aimed to determine the efficacy, safety and tolerability of 20 mg/kg/day cannabidiol compared with placebo.
The Quality of Life in Childhood Epilepsy (QOLCE) survey was used to measure multiple QOL domains. Caregivers completed the survey at baseline and after the 12 weeks of treatment. The QOLCE questionnaire assessed 91 items divided into five sub-domains: physical function; cognitive function; emotional well-being; social function and behaviour. General health was also recorded.
Table 6 below details the areas where there no change (indicated by or a difference of greater than 10 points between medians (indicated by t), and whether this change was statistically significant (indicated by *).

[6] = system: paediatric patients with epilepsy; conditions: care-giver-reported, 12 weeks open label; cited from earlier work

## C=C(C)[C@@H]1CCC(C)=C[C@H]1c1c(O)cc(CCCCC)cc1O [CBD, Cannabidiol]
[1]; of the 39 patients for which data were recorded
  patients with a positive response (slightly improved; much improved or very much improved): 34
[1]; patient 245-01, SNAP25, end of study period
  QOL measure: Very much improved: ✓
[1]; patient 245-03, FIRES, end of study period
  QOL measure: Very much improved: ✓
[1]; patient 245-06, DUP15Q, end of study period
  QOL measure: Much improved: ✓
[1]; patient 245-08, CDKL5, end of study period
  QOL measure: Very much improved: ✓
[1]; patient 245-11, CDKL5, end of study period
  QOL measure: Very much improved: ✓
[1]; patient 245-12, Aicardi, end of study period
  QOL measure: Very much improved: ✓
[1]; patient 245-28, Aicardi, end of study period
  QOL measure: Much improved: ✓
[1]; patient 245-32, DUP15Q, end of study period
  QOL measure: Much improved: ✓
[1]; patient 245-37, CDKL5, end of study period
  QOL measure: Very much improved: ✓
[1]; patient 245-38, CDKL5, end of study period
  QOL measure: Slightly improved: ✓
[1]; patient 245-40, DUP15Q, end of study period
  QOL measure: Much improved: ✓
[1]; patient 245-42, DUP15Q, end of study period
  QOL measure: Much improved: ✓
[1]; patient 245-43, DUP15Q, end of study period
  QOL measure: Slightly improved: ✓
[1]; patient 245-45, CDKL5, end of study period
  QOL measure: Slightly improved: ✓
[1]; patient 245-47, CDKL5, end of study period
  QOL measure: Very much improved: ✓
[1]; patient 245-48, CDKL5, end of study period
  QOL measure: Very much improved: ✓
[1]; patient 245-56, CDKL5, end of study period
  QOL measure: Slightly worse: ✓
[1]; patient 245-57, Aicardi, end of study period
  QOL measure: Much improved: ✓
[1]; patient FIL-01, Aicardi, end of study period
  QOL measure: Much improved: ✓
[1]; patient FIL-09, Doose, end of study period
  QOL measure: Very much improved: ✓
[1]; patient FIL-14, Doose, end of study period
  QOL measure: Much improved: ✓
[1]; patient FIL-25, Aicardi, end of study period
  QOL measure: Slightly worse: ✓
[1]; patient FLAM-25, Tuberous sclerosis, end of study period
  QOL measure: No change: ✓
[1]; patient LCH-04, Aicardi, end of study period
  QOL measure: Very much improved: ✓
[1]; patient LCH-08, Aicardi, end of study period
  QOL measure: No change: ✓
[1]; patient LCH-12, Aicardi, end of study period
  QOL measure: Very much improved: ✓
[1]; patient LCH-18, FIRES, end of study period
  QOL measure: Very much improved: ✓
[1]; patient LCH-21, CDKL5, end of study period
  QOL measure: Very much improved: ✓
[1]; patient LCH-22, Tuberous sclerosis, end of study period
  QOL measure: Very much improved: ✓
[1]; patient MAR-E1, FIRES, end of study period
  QOL measure: Much worse: ✓
[1]; patient MAR-E2, FIRES, end of study period
  QOL measure: Very much improved: ✓
[1]; patient PAT-10, Aicardi, end of study period
  QOL measure: Very much improved: ✓
[1]; patient PAT-11, Aicardi, end of study period
  QOL measure: Very much improved: ✓
[1]; patient PAT-21, Aicardi, end of study period
  QOL measure: Very much improved: ✓
[1]; patient PAT-26, Aicardi, end of study period
  QOL measure: Much improved: ✓
[1]; patient WIL-02, Sturge Weber, end of study period
  QOL measure: Much improved: ✓
[1]; patient WIL-05, Doose, end of study period
  QOL measure: Much improved: ✓
[1]; patient WIL-09, CDKL5, end of study period
  QOL measure: Much improved: ✓
[1]; patient WIL-10, Angelman, end of study period
  QOL measure: Much improved: ✓
[1]; tuberous sclerosis, CDKL5, Sturge Weber, Doose, Angelman, SNAP25, FIRES, DUP15Q, Aicardi
  quality of life in patients with additional epilepsy syndromes: observable improvement in quality of life
[2]; bottom right area of the biplot
  areas where improvement was observed without an improvement of seizures: control/helplessness and stigma item
[2]; open label study, 12 weeks, 5 to 50 mg/kg/day
  areas associated with quality of life with improvements (right of the zero F1 axis): attention and concentration; QOL item; energy/fatigue; control/helplessness and stigma item
[3]
  areas of QOL improved despite no improvement in seizure burden: memory; language; control/helplessness; stigma item and cognition
[3]; 10 or 20 mg/kg/day
  areas associated with quality of life with improvements: quality of life item; general health; social interactions; social activities; attention/concentration; overall quality of life; memory; language; control/helplessness; stigma item and cognition
[4]
  cognitive performances of rats exhibiting spontaneous recurrent seizures: restore the deteriorated cognitive performances
  seizure ratio of rats exhibiting spontaneous recurrent seizures: improved the seizure ratio
[5]; Lennox-Gastaut syndrome
  QOL domains with a significant increase above baseline: memory and language
  domains with a decrease in quality of life: no domains where there was a decrease in quality of life
[5]; QOL subscale: Anxiety
  Biostatistical analysis of QOL subscale score versus placebo: ↔
[5]; QOL subscale: Attention / concentration
  Biostatistical analysis of QOL subscale score versus placebo: ↔
[5]; QOL subscale: Behaviour
  Biostatistical analysis of QOL subscale score versus placebo: ↔
[5]; QOL subscale: Control / helplessness
  Biostatistical analysis of QOL subscale score versus placebo: ↔
[5]; QOL subscale: Depression
  Biostatistical analysis of QOL subscale score versus placebo: ↔
[5]; QOL subscale: Energy/fatigue
  Biostatistical analysis of QOL subscale score versus placebo: ↔
[5]; QOL subscale: General health
  Biostatistical analysis of QOL subscale score versus placebo: ↔
[5]; QOL subscale: Language
  Biostatistical analysis of QOL subscale score versus placebo: ↑*
[5]; QOL subscale: Memory
  Biostatistical analysis of QOL subscale score versus placebo: ↑*
[5]; QOL subscale: Other cognitive
  Biostatistical analysis of QOL subscale score versus placebo: ↑*
[5]; QOL subscale: Physical restriction
  Biostatistical analysis of QOL subscale score versus placebo: ↔
[5]; QOL subscale: Self-esteem
  Biostatistical analysis of QOL subscale score versus placebo: ↔
[5]; QOL subscale: Social activities
  Biostatistical analysis of QOL subscale score versus placebo: ↔
[5]; QOL subscale: Social interaction
  Biostatistical analysis of QOL subscale score versus placebo: ↑ (a difference of greater than 10 points between medians (indicated by t))
[5]; QOL subscale: Stigma item
  Biostatistical analysis of QOL subscale score versus placebo: ↔
[6]
  QOLCE areas with improvements: energy/fatigue; memory; other cognitive functions; control/helplessness; social interactions; behaviour and global quality of life
